This is an account of results in patent US20240327380A1, “BTK INHIBITORS” (BIOGEN MA INC., priority 2020, published 2024).

Structures are written as SMILES.

This experiment deals with T1, active BTK enzyme (Upstate 14-552) (Homo sapiens, UniProt Q06187).
T1 construct: purchased Upstate 14-552
T1 sequence (Q06187 whole entry): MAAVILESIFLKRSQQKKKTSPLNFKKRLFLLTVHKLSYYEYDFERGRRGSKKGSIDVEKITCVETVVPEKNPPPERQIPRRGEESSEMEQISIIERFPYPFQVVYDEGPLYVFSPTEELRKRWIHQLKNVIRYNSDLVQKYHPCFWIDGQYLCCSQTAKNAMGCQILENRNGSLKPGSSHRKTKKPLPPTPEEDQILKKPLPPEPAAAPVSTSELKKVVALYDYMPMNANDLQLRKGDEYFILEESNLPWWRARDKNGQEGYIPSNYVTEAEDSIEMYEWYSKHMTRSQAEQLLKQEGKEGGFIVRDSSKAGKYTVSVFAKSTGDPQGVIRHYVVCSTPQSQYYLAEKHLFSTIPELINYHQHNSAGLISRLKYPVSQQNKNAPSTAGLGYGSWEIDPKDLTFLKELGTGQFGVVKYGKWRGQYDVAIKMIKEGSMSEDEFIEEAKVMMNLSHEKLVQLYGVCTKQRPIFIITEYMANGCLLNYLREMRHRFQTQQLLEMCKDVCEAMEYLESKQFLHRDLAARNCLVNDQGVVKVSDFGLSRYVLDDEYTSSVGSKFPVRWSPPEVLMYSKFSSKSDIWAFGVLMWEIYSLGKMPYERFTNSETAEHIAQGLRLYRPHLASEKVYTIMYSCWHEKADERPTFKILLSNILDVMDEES
The experiment can be described thus: In Vitro BTK Kinase Assay: Btk-PolyGAT-LS Assay. The class given is biochemical. As to conditions: ATP 10 μM, polyGAT 100 nM, BTK 0.25 nM, 30 minutes, TRF readout. The procedure:
In Vitro BTK Kinase Assay: Btk-PolyGAT-LS Assay The purpose of the BTK in vitro assay is to determine compound potency against BTK through the measurement of IC50. Compound inhibition is measured after monitoring the amount of phosphorylation of a fluorescein-labeled polyGAT peptide (Invitrogen PV3611) in the presence of active BTK enzyme (Upstate 14-552), ATP, and inhibitor. The BTK kinase reaction was done in a black 96 well plate (costar 3694). For a typical assay, a 24 μL aliquot of a ATP/peptide master mix (final concentration; ATP 10 μM, polyGAT 100 nM) in kinase buffer (10 mM Tris-HCl pH 7.5, 10 mM MgCl2, 200 μM […], 5 mM DTT, 0.01% Triton X-100, and 0.2 mg/ml casein) is added to each well. Next, […] of a 4-fold, 40× compound titration in 100% DMSO solvent is added, followed by adding 15 μL of BTK enzyme mix in 1× kinase buffer (with a final concentration of 0.25 nM). The assay is incubated for 30 minutes before being stopped with 28 μL of a 50 mM EDTA solution. Aliquots (5 μL) of the kinase reaction are transferred to a low volume white 384 well plate (Coming 3674), and 5 μL of a 2× detection buffer (Invitrogen PV3574, with 4 nM Tb-PY20 antibody, Invitrogen PV3552) is added. The plate is covered and incubated for 45 minutes at room temperature. Time resolved fluorescence (TRF) on Molecular Devices M5 (332 nm excitation; 488 nm emission; 518 nm fluorescein emission) is measured. IC50 values are calculated using a four parameter fit with 100% enzyme activity determined from the DMSO control and 0% activity from the EDTA control.
Regarding `Cc1cc(-c2ccncc2N2CCN(C(=O)/C=C/CN(C)C)C(C)C2)ccc1CNC(=O)c1noc(C(C)(C)C)n1` (stereo not shown) [Example 74, (E)-5-(tert-butyl)-N-(4-(3-(4-(4-(dimethylamino)but-2-enoyl)-3-methylpiperazin-1-yl)pyridin-4-yl)-2-methylbenzyl)-1,2,4-oxadiazole-3-carboxamide], the half-inhibitory concentration (IC50) is not above 1 nM.
In the case of `C=CC(=O)N(C)CC1CCN(c2cnccc2-c2ccc(CNC(=O)c3noc(C(C)(C)C)n3)c(C)c2)C1` (stereo not shown) [Example 20, 5-(tert-butyl)-N-(2-methyl-4-(3-(3-((N-methylacrylamido)methyl)pyrrolidin-1-yl)pyridin-4-yl)benzyl)-1,2,4-oxadiazole-3-carboxamide], the IC50 is not above 1 nM.
`Cc1cc(-c2ccncc2N2CCN(C(=O)/C=C/CN3CCC3)CC2)ccc1CNC(=O)c1noc(C(C)(C)C)n1` [Example 66, (E)-N-(4-(3-(4-(4-(azetidin-1-yl)but-2-enoyl)piperazin-1-yl)pyridin-4-yl)-2-methylbenzyl)-5-(tert-butyl)-1,2,4-oxadiazole-3-carboxamide] had an IC50 of 1 to 10 nM.
For the molecule `C=CC(=O)N(C)[C@@H]1CCCN(c2cncc(C#N)c2-c2ccc(CNC(=O)c3cn(C(C)(C)C)nn3)c(C)c2F)C1` [Example 47, 1-(tert-butyl)-N-(4-(3-cyano-5-((R)-3-(N-methylacrylamido)piperidin-1-yl)pyridin-4-yl)-3-fluoro-2-methylbenzyl)-1H-1,2,3-triazole-4-carboxamide], the IC50 is not above 1 nM.
`C=CC(=O)N1CCN(c2cncnc2-c2ccc(CNC(=O)c3nc(C(C)(C)C)no3)c(C)c2)CC1` [Example 83, N-(4-(5-(4-acryloylpiperazin-1-yl)pyrimidin-4-yl)-2-methylbenzyl)-3-(tert-butyl)-1,2,4-oxadiazole-5-carboxamide] had an IC50 not above 1 nM.
Molecule `C=CC(=O)N1CC2CC1CN(c1cnccc1-c1ccc(CNC(=O)c3cc(C(C)(C)C)on3)c(C)c1)C2` (stereo not shown) [Example 55, 5-tert-butyl-N-[[2-methyl-4-[3-(6-prop-2-enoyl-3,6-diazabicyclo[3.2.1]octan-3-yl)-4-pyridyl]phenyl]methyl]isoxazole-3-carboxamide] returned an IC50 of more than 10 nM.
Take `C=CC(=O)N1CCC[C@@H](c2cnccc2-c2ccc(CNC(=O)c3cc(C(C)(C)C)on3)c(C)c2)C1` (single isomer, unassigned) [Example 34]: the IC50 is more than 10 nM.
In the case of `CNC/C=C/C(=O)N1CCN(c2cnccc2-c2ccc(CNC(=O)c3noc(C(C)(C)C)n3)c(C)c2)CC1` [Example 68, (E)-5-(tert-butyl)-N-(2-methyl-4-(3-(4-(4-(methylamino)but-2-enoyl)piperazin-1-yl)pyridin-4-yl)benzyl)-1,2,4-oxadiazole-3-carboxamide], the IC50 fell in the range of 1 to 10 nM.
In turn, `C=CC(=O)N1CCN(c2cncnc2-c2ccc(CNC(=O)c3nc(C4(C)CC4)no3)c(C)c2)CC1` [Example 84, N-(4-(5-(4-acryloylpiperazin-1-yl)pyrimidin-4-yl)-2-methylbenzyl)-3-(1-methylcyclopropyl)-1,2,4-oxadiazole-5-carboxamide] returned an IC50 not above 1 nM.
In the case of `C=CC(=O)N1CCN(c2cnccc2-c2ccc(CNC(=O)c3noc(C4(CF)CC4)n3)c(C)c2)CC1` [Example 98, N-(4-(3-(4-acryloylpiperazin-1-yl)pyridin-4-yl)-2-methylbenzyl)-5-(1-(fluoromethyl)cyclopropyl)-1,2,4-oxadiazole-3-carboxamide], the IC50 is not above 1 nM.
In the case of `C=CC(=O)N1CC2CC1CN(c1cnccc1-c1ccc(CNC(=O)c3cn(C(C)(C)C)nn3)c(C)c1)C2` (stereo not shown) [Example 54, 1-tert-butyl-N-[[2-methyl-4-[3-(6-prop-2-enoyl-3,6-diazabicyclo[3.2.1]octan-3-yl)-4-pyridyl]phenyl]methyl]triazole-4-carboxamide], the IC50 is more than 10 nM.
As for `Cc1cc(-c2c(F)cncc2N2CCN(C(=O)/C=C/CN(C)C)CC2)ccc1CNC(=O)c1noc(C(C)(C)C)n1` [Example 76, (E)-5-(tert-butyl)-N-(4-(3-(4-(4-(dimethylamino)but-2-enoyl)piperazin-1-yl)-5-fluoropyridin-4-yl)-2-methylbenzyl)-1,2,4-oxadiazole-3-carboxamide], the figure is not above 1 nM.
As for `Cc1cc(-c2ccncc2N2CCN(C(=O)/C=C/C(F)(F)F)CC2)ccc1CNC(=O)c1noc(C(C)(C)C)n1` [Example 58, (E)-5-(tert-butyl)-N-(2-methyl-4-(3-(4-(4,4,4-trifluorobut-2-enoyl)piperazin-1-yl)pyridin-4-yl)benzyl)-1,2,4-oxadiazole-3-carboxamide], the figure is not above 1 nM.
In the case of `C=CC(=O)N1CCN(c2cncnc2-c2ccc(CNC(=O)c3noc(C(C)(C)C)n3)c(C)c2)CC1` [Example 80, N-(4-(5-(4-acryloylpiperazin-1-yl)pyrimidin-4-yl)-2-methylbenzyl)-5-(tert-butyl)-1,2,4-oxadiazole-3-carboxamide], the IC50 is not above 1 nM.
As for `Cc1cc(-c2ccncc2N2CCN(C(=O)/C=C/CN(C)C)CC2)ccc1CN1CCc2c(cnn2C(C)(C)C)C1=O` [Example 72, (E)-1-(tert-butyl)-5-(4-(3-(4-(4-(dimethylamino)but-2-enoyl)piperazin-1-yl)pyridin-4-yl)-2-methylbenzyl)-1,5,6,7-tetrahydro-4H-pyrazolo[4,3-c]pyridin-4-one], the IC50 was not above 1 nM.
In turn, `Cc1cc(-c2ccncc2N2CCN(C(=O)/C=C/CN3CC(F)C3)CC2)ccc1CNC(=O)c1noc(C(C)(C)C)n1` [Example 64, (E)-5-(tert-butyl)-N-(4-(3-(4-(4-(3-fluoroazetidin-1-yl)but-2-enoyl)piperazin-1-yl)pyridin-4-yl)-2-methylbenzyl)-1,2,4-oxadiazole-3-carboxamide] had an IC50 of 1 to 10 nM.
For `Cc1cc(-c2c(F)cncc2N2CCN(C(=O)/C=C/CN(C)C)CC2)ccc1CNC(=O)c1nc(C(C)(C)C)no1` [Example 78, (E)-3-(tert-butyl)-N-(4-(3-(4-(4-(dimethylamino)but-2-enoyl)piperazin-1-yl)-5-fluoropyridin-4-yl)-2-methylbenzyl)-1,2,4-oxadiazole-5-carboxamide], the IC50 was not above 1 nM.
As for `CN(C)C/C=C/C(=O)N1CCN(c2cnccc2-c2ccc(CNC(=O)c3nc(C(C)(C)C)no3)c(C(F)(F)F)c2)CC1` [Example 92, (E)-3-(tert-butyl)-N-(4-(3-(4-(4-(dimethylamino)but-2-enoyl)piperazin-1-yl)pyridin-4-yl)-2-(trifluoromethyl)benzyl)-1,2,4-oxadiazole-5-carboxamide], the figure is not above 1 nM.
Molecule `C#CC(=O)N1CCN(c2cnccc2-c2ccc(CNC(=O)c3noc(C(C)(C)C)n3)c(C)c2)CC1` [Example 60, 5-(tert-butyl)-N-(2-methyl-4-(3-(4-propioloylpiperazin-1-yl)pyridin-4-yl)benzyl)-1,2,4-oxadiazole-3-carboxamide] gave an IC50 not above 1 nM.
As for `C=CC(=O)N(C)C1CCCN(c2cnccc2-c2ccc(CNC(=O)c3ncc(C(C)(C)C)o3)c(C)c2)C1` (stereo not shown) [Example 45, 5-(tert-butyl)-N-(2-methyl-4-(3-(3-(N-methylacrylamido)piperidin-1-yl)pyridin-4-yl)benzyl)oxazole-2-carboxamide], the figure is not above 1 nM; as for `Cc1cc(-c2ccncc2N2CCN(C(=O)/C=C/CN3CCOCC3)CC2)ccc1CNC(=O)c1noc(C(C)(C)C)n1` [Example 67, (E)-5-(tert-butyl)-N-(2-methyl-4-(3-(4-(4-morpholinobut-2-enoyl)piperazin-1-yl)pyridin-4-yl)benzyl)-1,2,4-oxadiazole-3-carboxamide], 1 to 10 nM; as for `Cc1cc(-c2ccncc2N2CCN(C(=O)/C=C/CN3CCN(C)CC3)CC2)ccc1CNC(=O)c1noc(C(C)(C)C)n1` [Example 65, (E)-5-(tert-butyl)-N-(2-methyl-4-(3-(4-(4-(4-methylpiperazin-1-yl)but-2-enoyl)piperazin-1-yl)pyridin-4-yl)benzyl)-1,2,4-oxadiazole-3-carboxamide], 1 to 10 nM.
The molecule `C=CC(=O)N1CCN(c2cnccc2-c2ccc(CNC(=O)c3noc(C(C)(C)C)c3F)c(C)c2)CC1` [Example 96, N-(4-(3-(4-acryloylpiperazin-1-yl)pyridin-4-yl)-2-methylbenzyl)-5-(tert-butyl)-4-fluoroisoxazole-3-carboxamide] had an IC50 not above 1 nM.
As for `C=CC(=O)N1CCN(c2cnccc2-c2ccc(CNC(=O)c3noc(C4(C(F)F)CC4)n3)c(C)c2)CC1` [Example 99, N-(4-(3-(4-acryloylpiperazin-1-yl)pyridin-4-yl)-2-methylbenzyl)-5-(1-(difluoromethyl)cyclopropyl)-1,2,4-oxadiazole-3-carboxamide], the figure is not above 1 nM; as for `Cc1cc(-c2ccncc2N2CCN(C(=O)/C=C/CN(C)C)CC2)ccc1CNC(=O)c1noc(C2(CF)CC2)n1` [Example 93, (E)-N-(4-(3-(4-(4-(dimethylamino)but-2-enoyl)piperazin-1-yl)pyridin-4-yl)-2-methylbenzyl)-5-(1-(fluoromethyl)cyclopropyl)-1,2,4-oxadiazole-3-carboxamide], not above 1 nM.

For orientation: IC50 means the concentration that inhibits the measured activity by half. Low values mean higher potency, high ones lower potency.
